Assays:
[1] = tested on: disease model cells (neurons derived from the 1464R cell line forcibly expressing wild-type and mutant TDP-43); experiment: Evaluation of cell protection using chromogenic substrate (Cell Counting Kit-8), with EA; type: cell-based, rat; conditions: Eda 1-200 μmol/L 24 h, then EA 20 μmol/L 24 h; vs Comparative Example 1 (FIG. 3)
Experimental: Using both vectors (a) and (b), the differentiated cell line in the infection medium was infected with adenovirus at a multiplicity of infection of 50, and cultured for 24 hours. As a result, neurons derived from the 1464R cell line, in which both wild-type and mutant TDP-43 were forcibly expressed intracellularly (hereinafter, also referred to as disease model cells), were obtained.
After that, a cell toxicity measurement kit (Cell Counting Kit-8, manufactured by DOJINDO) was used to expose the cells in each group according to a product protocol, and an amount of chromogenic substrate produced was measured by absorbance at 450 nm.
With this kit, the more viable cells present, the more chromogenic substrate is produced, resulting in a higher absorbance value at 450 nm. Therefore, a higher absorbance at 450 nm indicates a greater number of viable cells.
The data shown in FIG. 3 are all expressed as mean±standard error of the mean (SEM, n=4 for each). In FIG. 3, the symbol “##” indicates a statistically significant difference of p<0.01 compared to Comparative Example 1 (determined by Student t-test). In FIG. 3, the symbol “*” indicates a statistically significant difference of p<0.05 compared to Comparative Example 1, and the symbol “**” indicates a statistically significant difference of p<0.01 compared to Comparative Example 1 (both determined by Williams' multiple comparison test).

[2] = tested on: ALS patient-derived neurons (iPS cell-derived motor neurons, heterozygous TARDBP mutation); experiment: Evaluation of cellular damage by live cell imaging, ALS patient-derived neurons; type: cell-based, human; conditions: edaravone 30 μM, 24 hours
Experimental: Human induced pluripotent stem (iPS) cells were induced from cells derived from an ALS patient and cells derived from a healthy individual using a conventional method. The cells derived from the ALS patient were used that are known to have an ALS risk mutation as a heterozygous mutation in the TARDBP gene. Each iPS cell was differentiated into a motor neuron (hereinafter, also simply referred to as a “neuron”) using a conventional method. […]
A treatment was performed in which the culture medium dissolved with a dimethyl sulfoxide (DMSO) solution of the evaluation compound (edaravone) (final concentration: edaravone 30 μM, DMSO 0.03% v/v) was brought into contact with the neurons after 7 days of cultivation, and occurrence of cellular damage was evaluated over time. […]
Evaluation of cellular damage was performed by live cell imaging using IncuCyte S3 (Sartorius) and Cytotox (Sartorius, 4846) according to an attached protocol. The neurite length per unit area (unit: mm/mm^2) and the number of dead cells (unit: count/image) were analyzed over time and used as evaluation indicators. […]

CC1=NN(c2ccccc2)C(=O)C1 [edaravone, 5-methyl-2-phenyl-2,4-dihydro-3H-pyrazol-3-one]
absorbance at 450 nm (number of viable cells) [1]: increased in an Eda concentration-dependent manner | neurite length (rate of change, DMSO group = 100) ([2]; vs DMSO-treated group (FIG. 13)): significantly increased | number of dead neurons (rate of change, DMSO group = 100) ([2]; vs DMSO-treated group (FIG. 14)): significantly decreased
